According to patent publication US9080214B2, “Genetic markers for efficacy of iloperidone in the treatment of psychotic symptoms” (Vanda Pharmaceuticals, Inc., priority 2007, dated 2015):

Test system: individuals diagnosed with schizophrenia
Experiment: Change in PANSS-GP subscale by SNP genotype, patients on iloperidone 24 mg/day b.i.d. for 28 days (MMRM)
Assay type: in vivo, human
Excerpt: Earlier studies investigated an association between a polymorphism in the CNTF gene and iloperidone efficacy as well as associations between CYP2D6 and KCNQ1 genotypes and changes in QT interval following the administration of iloperidone. The present study involved the genotyping of DNA samples collected from 426 individuals diagnosed with schizophrenia in an attempt to identify additional SNPs associated with iloperidone efficacy. Each sample was genotyped at more than 500,000 SNP loci using the GeneChip® Human Mapping 500K Array Set (Affymetrix, Santa Clara, Calif.) and using assays developed in-house. Approximately half of the participants in the study were administered 24 mg/day of iloperidone, b.i.d., for 28 days. About 25% of the patients were administered ziprasidone. The remaining participants were administered a placebo. Three analyses of the PANSS-T were conducted. 1) A two-step approach where samples were randomly split into 2 groups of iloperidone-treated patients used to discover SNPs associated with changed in PANSS-T (Discovery phase) and a second group to confirm the 100 most significant SNPs (Confirmatory phase). 2) A one-step approach using the Last Observation Carried Forward (LOCF) PANSS-T data of all iloperidone-treated patients. For each SNP, the most parsimonious genetic model (e.g., homozygous for one allele v. all other genotypes [i.e., AA v. AB and BB], heterozygous v. homozygous [i.e., AB v. AA and BB]) was established with respect to iloperidone efficacy using a one-way analysis of variance (ANOVA). 3) A Mixed-effects Model Repeated Measures (MMRM) analysis was subsequently conducted using the best genetic model of each SNP in the MMRM model. MMRM analyses were also conducted with the PANSS subscales PANSS-P, PANSS-N, and PANSS-GP. The SNPs with a statistically significant association in all 3 analyses of PANSS-T, as well as the best of each analysis were considered significant findings and are listed below in Table 1. Results for each of these SNPs with the PANSS-T scales and with the three subscales PANSS-P, PANSS-N, and PANSS-GP are shown in Tables 2, 3, 4, and 5, respectively. […] In the present case of iloperidone efficacy, it is likely that different markers are more specifically associated with one or a few specific clinical symptoms, which is reflected in the improvement measured in separate subscales.

COc1cc(C(C)=O)ccc1OCCCN1CCC(c2noc3cc(F)ccc23)CC1 [iloperidone, 1-[4-[3-[4-(6-fluoro-1,2-benzisoxazol-3-yl)-1-piperidinyl]propoxy]-3-methoxyphenyl]ethanone]
mean of change in PANSS-GP (SNP_A-1819750 (CREG1) genotype A_A): −8.04
mean of change in PANSS-GP (SNP_A-1819750 (CREG1) genotype A_B* (lowest response)): −4.58
mean of change in PANSS-GP (SNP_A-1819750 (CREG1) genotype B_B): −6.81
mean of change in PANSS-GP (SNP_A-1819750 (CREG1) genotype nonAB** (highest response)): −7.21
mean of change in PANSS-GP (SNP_A-1860353 (RAP1B) genotype A_A** (highest response)): −17.20
mean of change in PANSS-GP (SNP_A-1860353 (RAP1B) genotype A_B): −5.17
mean of change in PANSS-GP (SNP_A-1860353 (RAP1B) genotype B_B): −4.96
mean of change in PANSS-GP (SNP_A-1860353 (RAP1B) genotype nonAA* (lowest response)): −5.00
mean of change in PANSS-GP (SNP_A-1934663 genotype A_A): −9.38
mean of change in PANSS-GP (SNP_A-1934663 genotype A_B): −8.80
mean of change in PANSS-GP (SNP_A-1934663 genotype B_B* (lowest response)): −3.07
mean of change in PANSS-GP (SNP_A-1934663 genotype nonBB** (highest response)): −8.92
mean of change in PANSS-GP (SNP_A-1973093 (KIAA0040) genotype A_A): −6.40
mean of change in PANSS-GP (SNP_A-1973093 (KIAA0040) genotype A_B* (lowest response)): −1.92
mean of change in PANSS-GP (SNP_A-1973093 (KIAA0040) genotype B_B): −7.77
mean of change in PANSS-GP (SNP_A-1973093 (KIAA0040) genotype nonAB** (highest response)): −7.51
mean of change in PANSS-GP (SNP_A-1975928 (SLC2A9) genotype A_A): −5.82
mean of change in PANSS-GP (SNP_A-1975928 (SLC2A9) genotype A_B): −5.39
mean of change in PANSS-GP (SNP_A-1975928 (SLC2A9) genotype B_B* (lowest response)): 9.62
mean of change in PANSS-GP (SNP_A-1975928 (SLC2A9) genotype nonBB** (highest response)): −5.72
mean of change in PANSS-GP (SNP_A-1987915 (GPR126) genotype A_A): −4.63
mean of change in PANSS-GP (SNP_A-1987915 (GPR126) genotype A_B): −4.28
mean of change in PANSS-GP (SNP_A-1987915 (GPR126) genotype B_B** (highest response)): −7.14
mean of change in PANSS-GP (SNP_A-1987915 (GPR126) genotype nonBB* (lowest response)): −4.36
mean of change in PANSS-GP (SNP_A-2007721 (LOC58486) genotype A_A): −2.52
mean of change in PANSS-GP (SNP_A-2007721 (LOC58486) genotype A_B** (highest response)): −10.51
mean of change in PANSS-GP (SNP_A-2007721 (LOC58486) genotype B_B): −3.91
mean of change in PANSS-GP (SNP_A-2007721 (LOC58486) genotype nonAB* (lowest response)): −3.90
mean of change in PANSS-GP (SNP_A-2044214 (HNT) genotype A_A): −6.83
mean of change in PANSS-GP (SNP_A-2044214 (HNT) genotype A_B* (lowest response)): −3.34
mean of change in PANSS-GP (SNP_A-2044214 (HNT) genotype B_B): −5.68
mean of change in PANSS-GP (SNP_A-2044214 (HNT) genotype nonAB** (highest response)): −6.43
mean of change in PANSS-GP (SNP_A-2048427 (NPAS3) genotype A_A): −9.50
mean of change in PANSS-GP (SNP_A-2048427 (NPAS3) genotype A_B): −9.79
mean of change in PANSS-GP (SNP_A-2048427 (NPAS3) genotype B_B* (lowest response)): −3.44
mean of change in PANSS-GP (SNP_A-2048427 (NPAS3) genotype nonBB** (highest response)): −9.75
mean of change in PANSS-GP (SNP_A-2070454 (NKX2-5) genotype A_A): −3.91
mean of change in PANSS-GP (SNP_A-2070454 (NKX2-5) genotype A_B): −4.34
mean of change in PANSS-GP (SNP_A-2070454 (NKX2-5) genotype B_B** (highest response)): −8.12
mean of change in PANSS-GP (SNP_A-2070454 (NKX2-5) genotype nonBB* (lowest response)): −4.20
mean of change in PANSS-GP (SNP_A-2076797 (NUDT9P1) genotype A_A): −2.80
mean of change in PANSS-GP (SNP_A-2076797 (NUDT9P1) genotype A_B** (highest response)): −8.23
mean of change in PANSS-GP (SNP_A-2076797 (NUDT9P1) genotype B_B): −2.42
mean of change in PANSS-GP (SNP_A-2076797 (NUDT9P1) genotype nonAB* (lowest response)): −2.62
mean of change in PANSS-GP (SNP_A-2103099 (HTR1A) genotype A_A): −7.79
mean of change in PANSS-GP (SNP_A-2103099 (HTR1A) genotype A_B* (lowest response)): −3.42
mean of change in PANSS-GP (SNP_A-2103099 (HTR1A) genotype B_B): −6.80
mean of change in PANSS-GP (SNP_A-2103099 (HTR1A) genotype nonAB** (highest response)): −7.16
mean of change in PANSS-GP (SNP_A-2120958 genotype A_A): −5.90
mean of change in PANSS-GP (SNP_A-2120958 genotype A_B): −6.13
mean of change in PANSS-GP (SNP_A-2120958 genotype B_B* (lowest response)): 1.80
mean of change in PANSS-GP (SNP_A-2120958 genotype nonBB** (highest response)): −5.99
mean of change in PANSS-GP (SNP_A-2170121 (C6) genotype A_A): −3.40
mean of change in PANSS-GP (SNP_A-2170121 (C6) genotype A_B** (highest response)): −10.21
mean of change in PANSS-GP (SNP_A-2170121 (C6) genotype B_B): −5.25
mean of change in PANSS-GP (SNP_A-2170121 (C6) genotype nonAB* (lowest response)): −3.57
mean of change in PANSS-GP (SNP_A-2274533 (LZTS1) genotype A_A** (highest response)): −7.04
mean of change in PANSS-GP (SNP_A-2274533 (LZTS1) genotype A_B): −2.16
mean of change in PANSS-GP (SNP_A-2274533 (LZTS1) genotype B_B): −2.33
mean of change in PANSS-GP (SNP_A-2274533 (LZTS1) genotype nonAA* (lowest response)): −2.20
mean of change in PANSS-GP (SNP_A-2283283 (XKR4) genotype A_A* (lowest response)): −0.58
mean of change in PANSS-GP (SNP_A-2283283 (XKR4) genotype A_B): −6.49
mean of change in PANSS-GP (SNP_A-2283283 (XKR4) genotype B_B): −6.90
mean of change in PANSS-GP (SNP_A-2283283 (XKR4) genotype nonAA** (highest response)): −6.66
mean of change in PANSS-GP (SNP_A-2284243 (GRIA4) genotype A_A): −6.57
mean of change in PANSS-GP (SNP_A-2284243 (GRIA4) genotype A_B): −6.77
mean of change in PANSS-GP (SNP_A-2284243 (GRIA4) genotype B_B* (lowest response)): −0.77
mean of change in PANSS-GP (SNP_A-2284243 (GRIA4) genotype nonBB** (highest response)): −6.69
mean of change in PANSS-GP (SNP_A-4204396 (CDH13) genotype A_A): −5.87
mean of change in PANSS-GP (SNP_A-4204396 (CDH13) genotype A_B): −5.99
mean of change in PANSS-GP (SNP_A-4204396 (CDH13) genotype B_B* (lowest response)): 1.39
mean of change in PANSS-GP (SNP_A-4204396 (CDH13) genotype nonBB** (highest response)): −5.91
mean of change in PANSS-GP (SNP_A-4212785 (PPP1R3B) genotype A_A* (lowest response)): 15.61
mean of change in PANSS-GP (SNP_A-4212785 (PPP1R3B) genotype A_B): −5.99
mean of change in PANSS-GP (SNP_A-4212785 (PPP1R3B) genotype B_B): −5.84
mean of change in PANSS-GP (SNP_A-4212785 (PPP1R3B) genotype nonAA** (highest response)): −5.89
mean of change in PANSS-GP (SNP_A-4230979 (ASB3) genotype A_A): −1.74
mean of change in PANSS-GP (SNP_A-4230979 (ASB3) genotype A_B): −3.42
mean of change in PANSS-GP (SNP_A-4230979 (ASB3) genotype B_B** (highest response)): −8.85
mean of change in PANSS-GP (SNP_A-4230979 (ASB3) genotype nonBB* (lowest response)): −3.07
mean of change in PANSS-GP (SNP_A-4256833 (MLCK) genotype A_A): −7.14
mean of change in PANSS-GP (SNP_A-4256833 (MLCK) genotype A_B* (lowest response)): −2.62
mean of change in PANSS-GP (SNP_A-4256833 (MLCK) genotype B_B): −6.45
mean of change in PANSS-GP (SNP_A-4256833 (MLCK) genotype nonAB** (highest response)): −6.49
mean of change in PANSS-GP (SNP_A-4258279 (RRM1) genotype A_A): −4.64
mean of change in PANSS-GP (SNP_A-4258279 (RRM1) genotype A_B* (lowest response)): −0.66
mean of change in PANSS-GP (SNP_A-4258279 (RRM1) genotype B_B): −6.29
mean of change in PANSS-GP (SNP_A-4258279 (RRM1) genotype nonAB** (highest response)): −6.27
